Literature values as cited in patent US20110092597A1, “METHOD FOR TREATING HERPES VIRUS INFECTION” (priority 2009, published 2011).

Legend:
[1] = not given; remark: listed apart in the source

SMILES | Solubility in water | Bioavailability [1]
O=C(O)Cc1ccccc1Nc1c(Cl)cccc1Cl [Diclofenac, 2-(2,6-dichloro-anilino)-phenyl-acetic acid] | relatively low | –
Nc1nc2c(ncn2COCCO)c(=O)[nH]1 [acyclovir, acycloguanosine] | poorly soluble | low
